We go through ten compounds from US7968124B2, “Compositions for the reversal and detoxification of anesthetics and other compounds and methods of their use” (Lyotropic Therapeutics, Inc., priority 2004, dated 2011).

Values after ≈ are worked out from the molar mass of the structure shown. Like-named read-outs stand apart in the source and are kept apart here. Bounds are passed on as bounds.

Data set [1] in a line: Partitioning of vecuronium bromide between phosphatidylcholine/tocopherol/water reversed cubic phase and water (HPLC). It is filed as physicochemical. On the procedure:
In this Example, the partitioning of the quaternary ammonium skeletal muscle relaxant vecuronium bromide, a water-soluble compound with a low octanol-water partition coefficient, between a phosphatidylcholine/tocopherol/water reversed cubic phase and water is measured, and found to be very high, sufficiently high as to enable the use of the invention in attenuating the effect of the drug in the body of a mammal. An amount 0.6169 gm of phosphatidylcholine (Phospholipon 90G, from Phospholipid GmbH) was mixed with 0.6730 gm of alpha-tocopherol and 0.2194 gm of a 10% vecuronium bromide solution in water. An amount 1.1226 gm of this mixture was smeared onto the inner wall of a test tube, and 6.4495 gm of water added to the tube so as to contact the mixture. Upon swelling with water, the mixture became a reversed cubic phase. […] The partition coefficient between cubic phase and water was thus approximately 1,600 (or log KQW=3.2). […] One with ordinary skill in the art will recognize that the vecuronium mass balance checks correctly if one assumes that the water content of the final cubic phase, after swelling to equilibrium, is approximately 40%, which is in perfect accord with the phase diagram derived in this laboratory for this cubic phase region.

Data set [2] can be described thus: Partition of amphotericin B between PC/alpha-tocopherol/water cubic phase and water (HPLC). The data set is classed as physicochemical. On the procedure: Amphotericin B provides an example of an API with high toxicity which has a site of action in the interior of a fungal lipid biomembrane.
An amount 0.0082 g of Amphotericin B and 0.8 mL of DMSO (dimethylsulfoxide) were added to a 16 mL test tube. The test tube was heated to 60° C. until the amphotericin B was completely dissolved. An amount 0.692 g of 2.5% DMPG in the phosphatidylcholine product Lipoid E80, 0.8 mL of DMSO, and 0.6 mL of ethanol were added to a second 16 mL test tube. The mixture was heated to 60° C. and vortexed until the Lipoid E80/DMPG was entirely dissolved. An amount 0.6873 g of vitamin E and 0.8 mL of DMSO were added to a third 16 mL test tube. The mixture was heated to 60° C. and vortexed until the vitamin E was completely dissolved. The contents of the second and third test tubes were added to the first test tube containing the amphotericin B and DMSO mixture. The test tube containing the entire mixture was heated to 60° C. for 30 minutes to ensure that all components were completely dissolved.
An amount of 10 mL of deionized water was added to the test tube. The test tube was gently shaken at 40 RPM for 30 minutes on a Lab-Line Junior Orbit Shaker. The aqueous portion was decanted and filtered through Aldrich medium speed filter paper into a clean test tube and labeled “wash 1”. This washing procedure was repeated three additional times to obtain “wash 2”, “wash 3”, and “wash 4”.
HPLC analysis was then performed to determine the amphotericin B concentrations in the 4 wash solutions and the final, quadruply-washed cubic phase. […] In contrast, the amphotericin B concentrations in the “wash 3” and “wash 4” solutions were both approximately 0.0035 mg/mL, thus making the partition coefficient on the order of 1,000.

The test system of data set [3] is bupivacaine cardiotoxicity. Description: Rescue in rat model with normally-lethal intravenous injection of bupivacaine. It is filed as in vivo. The conditions noted are these: rats, 12 mg/Kg intravenously, all animals. As for the experimental part:
The RA5-5E and RA5-15E dispersions prepared in Example 10 were subsequently tested in vivo as a rescue agent in a rat model incorporating a normally-lethal intravenous injection of bupivacaine. Twelve adult male rats were randomly arranged into three groups of four animals each. Animals in each group were given a known lethal dose (12 mg/Kg) of the amide local anesthetic bupivacaine intravenously. Each animal was monitored for signs of acute cardiotoxicity. All animals became pulseless within 10 seconds of the injection of bupivacaine. When each animal became pulseless, it was treated immediately with mild chest compression and with one of the following: (i) 4 ml/Kg normal physiologic saline (Group A); (ii) 4 ml/Kg of dispersion RA5-15E of the instant invention with a 15 percent particle concentration (Group B); or, (iii) 6 ml/Kg of dispersion RA5-5E of the instant invention with a 5.6 percent particle concentration (Group C). […] The administration of the dispersion according to the instant invention rescued the animals from death due to the systemic toxicity of an overdose of a common local anesthetic agent.

For data set [4] the following is noted: pH 7.4; cited from earlier work.
The nature of data set [5]: Effective partition coefficients of local anesthetics into Example 10 dispersions in the presence of albumin. Conditions: dispersions and methods of Example 10, RA5-15E dispersion named.
Procedure: Nanosep Omega centrifuge filters at 300,000 MWCO from Pall Filtron were used to separate particles from exterior phase.
For HPLC analysis, the bottom phase liquid (filtrate) was injected directly, and the top phase (retentate) dissolved in 500 microliters of methanol, then injected. […] Standards were run for each of the toxins, and toxin concentrations determined in the exterior (bottom) phase and in the top phase retentate.
The analysis proceeded as follows. […] From this and the top phase assay value, the concentration of toxin in the particles was back-calculated. This was then divided by the aqueous phase (bottom phase) concentration, since this was undiluted, in order to arrive at an effective partition coefficient.
Data set [6] in a line: Binding of strontium ions to cubic phase particles (precipitation, centrifugation). The conditions noted are these: 18.9 mM strontium chloride added to RA5-15E; immediate precipitation, centrifuged to the bottom. The data set is classed as physicochemical. An excerpt:
A high degree of binding of strontium ions to the phosphatidylcholine in RA5-15E was evidenced by the immediate precipitation of the cubic phase, which centrifuged to the bottom of the dispersion. Were the heavy strontium ions not bound, the cubic phase would be less dense than water and would have centrifuged to the top of the dispersion, as is the usual case with other methods of precipitating the particles. Radiostrontium, and to a lesser extent strontium, have known toxic effects, as do related phosphatidylcholine-binding metals. More broadly, this Example illustrates how the effect of large bilayer surface areas in cubic phase particles can result in effective uptake of toxins that bind to bilayer components.

Data set [7] in a line: Uptake of toxin into particles, centrifuge filter separation and HPLC: etomidate. Conditions: etomidate in the absence of albumin.
For data set [8] the following is noted: intravenous doses as high as 30 mg/Kg/day; cited from earlier work.
Data set [9] is described as follows: Solubility of drugs in soy oil, water, tocopherol and PC/tocopherol/water cubic phase.
Procedure: (§1) Methanol and dichloromethane were particularly effective for this purpose. After solubilizing the compound and soy oil or tocopherol together with the common solvent, the common solvent was then evaporated using a rotovap. At the resulting concentration of the compound in soy oil or tocopherol, the sample was monitored over approximately 4 weeks for any sign of precipitation, using centrifugation and microscopy; the microscopy was performed using a combination of Differential Interference Contrast (DIC), transmitted dark field, and polarizing modes.
Setting [10] is: oil or lipid, Solubility in soy oil.

Procedure for physchem: as §1

With `CC(=O)O[C@H]1C[C@@H]2CC[C@@H]3[C@H](CC[C@@]4(C)[C@H]3C[C@H]([N+]3(C)CCCCC3)[C@@H]4OC(C)=O)[C@@]2(C)C[C@@H]1N1CCCCC1` [vecuronium bromide], in data set [1], the “log KQW” value was determined as 3.2; the “partition coefficient between cubic phase and water” value is on record as “approximately 1,600”. Moreover, in data set [1] (after 3 days of contact), the “concentration in the aqueous phase” value stood at 6 µg/mL and the “concentration in the cubic phase” value stood at 10000 µg/mL. Besides, the “log KQW” value in data set [1] (anionic lipid content increased by incorporating a bile salt) is recorded as “approximately 4”. For the same compound, the “cubic phase-water partition coefficient” value in [1] (for at least some cubic phases of use in the invention) is recorded as “above 1,000”.

With `C[C@@H]1[C@H](O)[C@@H](C)/C=C/C=C/C=C/C=C/C=C/C=C/C=C/[C@H](O[C@@H]2O[C@H](C)[C@@H](O)[C@H](N)[C@@H]2O)C[C@@H]2O[C@](O)(C[C@@H](O)C[C@@H](O)[C@H](O)CC[C@@H](O)C[C@@H](O)CC(=O)O[C@H]1C)C[C@H](O)[C@H]2C(=O)O` [amphotericin B], the “concentration in "wash 3" and "wash 4" solutions” value in [2] was “approximately 0.0035 mg/mL”. Besides, the “true concentration in the cubic phase itself, estimated” value in data set [2] (corrected for entrapped water) is given as “approximately 3 mg/mL”. In addition, in data set [2] (cubic phase with entrapped pockets of water), the “concentration in quadruply-washed cubic phase (HPLC)” value is 1760 µg/mL.

In the case of `CCCCN1CCCCC1C(=O)Nc1c(C)cccc1C` (stereo not shown) [bupivacaine], in [3], the “time to pulselessness after injection” value was at most 10 s. The octanol-water coefficient result in data set [4] was “greater than 1,000”. The effective partition coefficient in [5] was found to be 62.

For `[Cl-].[Cl-].[Sr+2]` [strontium ions, strontium chloride], the “binding of strontium ions to cubic phase particles” value in data set [6] is recorded as “strong binding”.

Compound `CCOC(=O)c1cncn1[C@H](C)c1ccccc1` [Etomidate] came in with an effective partition coefficient in [7] of 309. Moreover, the solubility amounted to 105 mg/mL in “physchem” (oil or lipid, Solubility in cubic phase with tocopherol, approx. 34% phosphatidylcholine, 31% tocopherol plus compound, 35% water); 80 mg/mL (≈ 327 mM) in the data set “physchem” (setting [10]); 200 mg/mL (≈ 819 mM) in “physchem” (oil or lipid, Solubility in tocopherol); 4.5e-05 mg/mL (≈ 0.000184 mM) in the data set “physchem” (water, Solubility in Water).

On to tocopherol, for which the “adverse effects of intravenous doses” value in [8] is reported as “essentially free from any adverse effects”.

In the case of `COc1c(C)c2c(c(O)c1C/C=C(\C)CCC(=O)OCCN1CCOCC1)C(=O)OC2` [Mycophenolate mofetil], the solubility in data set [9] (soy oil, oil or lipid) was 3000 µg/mL (≈ 6.92 mM); in data set [9] (tocopherol, oil or lipid), 200000 µg/mL (≈ 461 mM); in data set [9] (water), 39 µg/mL (≈ 0.09 mM).

For `CC(=O)O[C@H]1C(=O)[C@@]2(C)[C@H]([C@H](OC(=O)c3ccccc3)[C@]3(O)C[C@H](OC(=O)[C@H](O)[C@@H](NC(=O)c4ccccc4)c4ccccc4)C(C)=C1C3(C)C)[C@]1(OC(C)=O)CO[C@@H]1C[C@@H]2O` [Paclitaxel], the solubility in the data set “physchem” (oil or lipid, Solubility in cubic phase with spearmint oil in place of tocopherol) was 42 mg/mL (≈ 49.2 mM); in “physchem” (setting [10]) it was under 0.1 mg/mL; in the data set “physchem” (oil or lipid, Solubility in spearmint oil (used in place of tocopherol)), 100 mg/mL (≈ 117 mM).

Turning to `CCC(C)n1ncn(-c2ccc(N3CCN(c4ccc(OCC5COC(Cn6cncn6)(c6ccc(Cl)cc6Cl)O5)cc4)CC3)cc2)c1=O` (stereo not shown) [Itraconazole], the solubility in [9] (soy oil, oil or lipid) was under 500 µg/mL; in [9] (water), 0.001 µg/mL (≈ 1.42e-06 mM).

In the case of `CCOC(=O)c1ccc(N)cc1` [benzocaine], in data set [5], the effective partition coefficient is listed as 148.

As a reminder, the solubility is how much of the substance goes into solution per volume.
